Experiments:
Assay type in all cases: in vivo
[1] = system: Spodoptera litura; assay: Insecticidal effect for Spodoptera litura by spraying treatment to host crop (Test Example 2); settings: 100 ppm, sprayed on soybean, third-instar larvae of Spodoptera litura, fifth day after; for pest or weed control at 100 ppm: 120 h, read-out: rate of dead pests (%)
Summary of the method: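 Ten third-instar larvae held at 25° C. on two excised primary soybean leaves previously sprayed to dripping with 100 ppm test solution. Mortality (%) calculated from dead versus tested larvae on the fifth day.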

[2] = system: Tetranychus urticae; assay: Acaricidal effect for Tetranychus urticae (Test Example 5); settings: 100 ppm (table); spray on kidney bean with ten female imagoes; survivors counted on second and seventh day, 25° C.
Procedure: Acaricidal Effect for Tetranychus urticae
Ten female imagoes Tetranychus urticae were set free on a kidney bean wherein primary leaves had just developed. On the following day, a pesticidal solution, which was prepared by dissolving 5 mg of test compound (represented by the compound Nos. in the above Examples) in 0.5 ml of acetone containing Tween 20 ([…]) with Dain (trade name, sticker) water diluted 5000-fold, was sprayed with spray gun in the amounts wherein the pesticidal solution dripped. The kidney bean was left in a temperature-controlled breeding room (25° C.). On the second and seventh day after treatment, the number of surviving Tetranychus urticae was examined. The rate of decrease was calculated by the following formula. rate of decrease (%)=(1−(S2/(5.59×(10+(10+S1)/2+S1))))×100 In the above formula, • S1; the number of surviving imagoes on the second day after • S2; the number of surviving pests on the seventh day after […]

[3] = system: Plutella xylostella; assay: Insecticidal effect for Plutella xylostella by immersion treatment of host crop (Test Example 1); settings: cabbage leaf dipped, second-instar larvae of Plutella xylostella, fifth day after; for rate of dead pests (%): 100 ppm; for pest or weed control at 100 ppm: foliar, 120 h, read-out: rate of dead pests (%)
Procedure: Insecticidal Effect for Plutella xylostella by Immersion Treatment of Host Crop One true leaf of 7 to 8-leave stage cabbage was cut off and dipped in a pesticidal solution for a few seconds, which was prepared by dissolving 5 mg of test compound (represented by the compound Nos. in the above Examples) in 0.5 ml of acetone containing Tween 20 (trade name) and then diluting it to the prescribed concentration (100 ppm) with Dain (trade name, sticker) water diluted 5000-fold. After drying the pesticidal solution, the leaf was put into an ice cream cup (180 ml), and ten second-instar larvae of Plutella xylostella were set free therein. The cup was left in a temperature-controlled breeding room (24° C.). On the fifth day after, the number of surviving Plutella xylostella was examined. The rate of dead pests was calculated by the following formula. rate of dead pests (%)=(number of dead pests/number of test pests)×100

[4] = system: Spodoptera litura; assay: Insecticidal effect for Spodoptera litura by immersion treatment of host crop root (Test Example 4); settings: 25 ppm, soybean root immersion 5 days, second-instar larvae of Spodoptera litura, fifth day after; for pest or weed control at 25 ppm: 120 h, read-out: rate of dead pests (%)
Summary of the method: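 Soil was washed from the roots of soybean plants at the primary-leaf stage, and the roots were immersed in a pesticidal solution held in a light-shielded 100 ml Erlenmeyer flask. The solution was made from acetone containing Tween 20, diluted with ion-exchange water. Five days after root immersion, two primary leaves were cut and placed in a 180 ml cup with ten second-instar Spodoptera litura larvae, then kept at 25° C. Survivors were counted five days later. The rate of dead pests (%) was calculated as dead pests divided by test pests, times 100.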

[5] = system: Plutella xylostella; assay: Insecticidal effect for Plutella xylostella by immersion treatment of host crop root (Test Example 3); settings: 25 ppm, cabbage root immersed 5 days, ten second-instar larvae on stem and leaves, counted on the fifth day, 24° C.; for pest or weed control at 25 ppm: Plutella xylostella, 120 h, read-out: rate of dead pests (%)
Procedure: Insecticidal Effect for Plutella xylostella by Immersion Treatment of Host Crop Root
Roots of 4-leave stage cabbage was washed with tap water to remove soil, and then immersed in a pesticidal solution which was prepared by dissolving 5 mg of test compound (represented by the compound Nos. in the above Examples) in 0.5 ml of acetone containing Tween 20 (trade name) and then diluting it to the prescribed concentration (25 ppm) with ion-exchange water, and which was filled in a light-shielded Erlenmeyer flask (100 ml). On the fifth day after immersion of root, the root was cut off, and the stem and leaves were put into an ice cream cup (180 ml). Ten second-instar larvae of Plutella xylostella were set free therein, and the cup was left in a temperature-controlled breeding room (24° C.). On the fifth day after, the number of surviving Plutella xylostella was examined. The rate of dead pests was calculated by the following formula. rate of dead pests (%)=(number of dead pests/number of test pests)×100

SMILES | rate of dead pests (%) [1] [%] | rate of decrease (%) [2] [%] | rate of dead pests (%) [3] [%] | rate of dead pests (%) [4] [%] | rate of dead pests (%) [5] [%] | pest or weed control at 25 ppm [4] [%] | pest or weed control at 100 ppm [1] [%] | pest or weed control at 100 ppm [3] [%] | pest or weed control at 25 ppm [5] [%]
CN1CN(C(=O)c2c(F)cccc2F)C(=O)N(c2ccc(Oc3ccc(C(F)(F)F)cc3Cl)cc2F)C1 [III-21] | 100 | 99 |  |  |  |  |  |  | 
CSCC(=O)N1CN(C(=O)c2c(F)cccc2F)C(=O)N(c2ccc(Oc3ccc(C(F)(F)F)cc3Cl)cc2F)C1 [III-45] | 100 | 100 | 100 |  |  |  |  |  | 
O=C(c1c(F)cccc1F)N1COCN(c2ccc([S+]([O-])C(F)(F)C(F)Cl)cc2F)C1=O (stereo not drawn) [I-8] | 100 |  | 100 | 100 | 100 |  |  |  | 
O=C(c1c(F)cccc1F)N1CN(S(=O)(=O)C(F)(F)F)CN(c2ccc(Oc3ccc(C(F)(F)F)cc3Cl)cc2F)C1=O [III-35] | 100 | 97 |  |  |  |  |  |  | 
CN1CN(C(=O)c2c(F)cccc2F)C(=O)N(c2ccc(SC(F)F)cc2F)C1 [III-148, 1-(2,6-difluorobenzoyl)-3-[4-(difluoromethylthio)-2-fluorophenyl]-5-methyltetrahydro-1,3,5-triazin-2(1H)-one] |  |  |  |  |  | 100 | 100 | 100 | 100
COC(=O)SN1CN(C(=O)c2c(F)cccc2F)C(=O)N(c2ccc(Oc3ccc(C(F)(F)F)cc3Cl)cc2F)C1 [III-31] | 100 | 99 | 100 |  |  |  |  |  | 
CSc1ccc(N2COCN(C(=O)c3c(F)cccc3F)C2=O)c(F)c1 [I-28] | 100 |  | 100 | 100 | 100 |  |  |  | 
COC(=O)C(=O)N1CN(C(=O)c2c(F)cccc2F)C(=O)N(c2ccc(Oc3ccc(C(F)(F)F)cc3Cl)cc2F)C1 [III-37, Methyl 2-[3-[4-(2-chloro-4-trifluoromethylphenoxy)-2-fluorophenyl]-5-(2,6-difluorobenzoyl)hexahydro-4-oxo-1,3,5-triazin-1-yl]-2-oxoacetate] |  | 97 |  |  |  | 95 | 100 |  | 
O=C(OCc1ccccc1)C(=O)N1CN(C(=O)c2c(F)cccc2F)C(=O)N(c2ccc(Oc3ccc(C(F)(F)F)cc3Cl)cc2F)C1 [III-39, Benzyl 2-[3-[4-(2-chloro-4-trifluoromethylphenoxy)-2-fluorophenyl]-5-(2,6-difluorobenzoyl)hexahydro-4-oxo-1,3,5-triazin-1-yl]-2-oxoacetate] |  | 97 |  |  |  |  | 100 | 100 | 
O=C(c1c(F)cccc1F)N1COCN(c2ccc(SC(F)F)cc2F)C1=O [I-41, 3-(2,6-difluorobenzoyl)-5-[4-(difluoromethylthio)-2-fluorophenyl]tetrahydro-4H-1,3,5-oxadiazin-4-one] |  |  |  |  |  | 100 | 100 | 100 | 100
O=C(CBr)N1CN(C(=O)c2c(F)cccc2F)C(=O)N(c2ccc(Oc3ccc(C(F)(F)F)cc3Cl)cc2F)C1 [III-44] | 100 | 96 | 100 |  |  |  |  |  | 
CSc1ccc(N2COCN(C(=O)c3c(F)cccc3Cl)C2=O)c(F)c1 [I-205] | 100 |  | 100 | 100 | 90 |  |  |  | 
CNC(=O)C(=O)N1CN(C(=O)c2c(F)cccc2F)C(=O)N(c2ccc(Oc3ccc(C(F)(F)F)cc3Cl)cc2F)C1 [III-42] | 100 | 98 |  |  |  |  |  |  | 
COC(=O)C(=O)N1CN(C(=O)c2c(F)cccc2F)C(=O)N(c2cc(Cl)c(F)c(Cl)c2F)C1 [III-64] | 100 |  | 100 | 90 | 90 |  |  |  | 
O=C(c1c(F)cccc1F)N1COCN(c2ccc([S+]([O-])C(F)(F)C(F)Cl)cc2)C1=O (stereo not drawn) [I-11] | 100 |  | 100 | 100 | 100 |  |  |  | 
CS(=O)(=O)N1CN(C(=O)c2c(F)cccc2F)C(=O)N(c2cc(Cl)c(F)c(Cl)c2F)C1 [III-58] | 100 |  | 100 | 100 | 90 |  |  |  | 
CN1CN(C(=O)c2c(F)cccc2F)C(=O)N(c2ccc([S+]([O-])C(F)F)cc2F)C1 (stereo not drawn) [III-152, 1-(2,6-difluorobenzoyl)-3-[4-(difluoromethylsulfinyl)-2-fluorophenyl]-5-methyltetrahydro-1,3,5-triazin-2(1H)-one] |  |  |  |  |  | 100 | 100 | 100 | 100
O=C(c1c(F)cccc1Cl)N1COCN(c2ccc([S+]([O-])C(F)(F)F)cc2F)C1=O (stereo not drawn) [I-222] | 100 |  | 100 | 100 | 100 |  |  |  | 
C[S+]([O-])CC(=O)N1CN(C(=O)c2c(F)cccc2F)C(=O)N(c2ccc(Oc3ccc(C(F)(F)F)cc3Cl)cc2F)C1 (stereo not drawn) [III-46] |  | 97 |  |  |  |  |  |  | 
CON(C)C(=O)C(=O)N1CN(C(=O)c2c(F)cccc2F)C(=O)N(c2ccc(Oc3ccc(C(F)(F)F)cc3Cl)cc2F)C1 [III-48] |  | 95 | 100 |  |  |  |  |  | 
O=C(c1c(F)cccc1F)N1COCN(c2ccc([S+]([O-])C(F)(F)C(F)F)cc2)C1=O (stereo not drawn) [I-20] | 100 |  | 100 | 95 | 100 |  |  |  | 
CONC(=O)C(=O)N1CN(C(=O)c2c(F)cccc2F)C(=O)N(c2ccc(Oc3ccc(C(F)(F)F)cc3Cl)cc2F)C1 [III-49] | 100 | 96 |  | 95 |  |  |  |  | 
CC(=O)N1CN(C(=O)c2c(F)cccc2F)C(=O)N(c2ccc(SC(F)F)cc2F)C1 [III-149] | 100 |  | 100 | 100 | 95 |  |  |  | 
